According to US6734199B1, “Substituted benzylthiazolidine-2, 4-dione derivatives” (Kyorin Pharmaceutical Co., Ltd., priority 1999, dated 2004):
Where two headings read alike, the source gives them in different places.

What was measured:
[1] = biological target: T1, human type PPAR α ligand-binding domain fused with yeast transcription factor DNA-binding domain (Homo sapiens, UniProt Q07869); experiment: Test of transactivation on peroxisome proliferator-activated receptor α (GAL4 DNA-binding domain/PPAR ligand-binding domain reporter in CHO cells)
T1 sequence (Q07869 239-466 limits assumed): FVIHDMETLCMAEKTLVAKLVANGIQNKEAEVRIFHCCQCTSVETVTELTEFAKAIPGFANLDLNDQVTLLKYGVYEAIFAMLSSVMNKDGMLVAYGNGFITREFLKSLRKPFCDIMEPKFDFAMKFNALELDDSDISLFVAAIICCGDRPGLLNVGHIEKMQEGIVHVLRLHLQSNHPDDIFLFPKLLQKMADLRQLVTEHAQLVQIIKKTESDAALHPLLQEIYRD
Method: (§1) Test of Transactivation on Peroxisome Proliferator-activated Receptors α and γ
(§2) After 24 hours, CAT activity and β-galactosidase activity were measured.

[2] = biological target: T2, human type PPAR γ ligand-binding domain fused with yeast transcription factor DNA-binding domain (Homo sapiens, UniProt P37231); experiment: Test of transactivation on peroxisome proliferator-activated receptor γ (GAL4 DNA-binding domain/PPAR ligand-binding domain reporter in CHO cells)
T2 sequence (P37231 238-503 limits assumed): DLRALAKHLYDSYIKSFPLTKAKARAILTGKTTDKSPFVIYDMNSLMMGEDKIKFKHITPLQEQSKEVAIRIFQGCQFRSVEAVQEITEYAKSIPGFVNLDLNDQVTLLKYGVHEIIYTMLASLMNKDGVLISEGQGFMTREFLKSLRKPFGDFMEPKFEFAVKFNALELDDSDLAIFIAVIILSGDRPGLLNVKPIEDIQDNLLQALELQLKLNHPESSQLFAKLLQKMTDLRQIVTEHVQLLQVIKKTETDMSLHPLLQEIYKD
Method: as §1, §2

EC50 [1]	EC50 [2]	melting point	EC50 ([1]; read-out: Transactivation action PPARα EC50, CHO cells, 24 hours, CAT activity with β-galactosidase internal standard)	Structure (SMILES)
240 nM	0.24 µM	–	–	COc1ccc(CC2SC(=O)NC2=O)cc1C(=O)NCc1ccc(Oc2ccccc2)cc1 (stereo not drawn) [Example 3]
630 nM	6.8 µM	170.5 to 172 °C	–	COc1ccc(CC2SC(=O)NC2=O)cc1C(=O)NCc1ccc(-c2ccccc2)cc1 (stereo not drawn) [Example 2, N-[(Biphenyl-4-yl)Methyl]-5-[(2.4-Dioxothiazolidin-5-yl)Methyl]-2-Methloybenzamide]
–	–	87 to 89 °C	–	COc1ccc(CC2SC(=O)NC2=O)cc1C(=O)NCc1ccc(Oc2ccccc2)cc1 (stereo not drawn) (hydrate or solvate) [Example 3]
–	–	–	1300 nM	CCCCC/C=C\C/C=C\C=C\[C@@H](O)C/C=C\CCCC(=O)O [(8S)-HETE, reference compound]
440 nM	–	131 to 132.5 °C	–	COc1ccc(CC2SC(=O)NC2=O)cc1C(=O)NCc1ccc(OCc2ccccc2)cc1 (stereo not drawn) [Example 1]
